Entries after “also recorded” stand apart in the source; their conditions may differ.
Experiments:
mice [1] = conditions: animal models; NPL 19 / NPL 21; cited from earlier work
mice [2] = conditions: cited from earlier work
rat = conditions: cited from earlier work
mouse CD11c (+) cells = assay: IL-23 production in CD11c dendritic cells (ELISA); assay type: cell-based; conditions: 10, 100, or 1000 nM; antibody to CD40, 36 hours; supernatant ELISA
Experimental: CD11c dendritic cells (DCs) from the spleens of C57BL/6 mice were purified by auto-magnetic activated cell sorting. The DCs were cultured in a 96-well plate at a density of 6×10^5 cells per well in the presence of 10 microgram/mL antibody to CD40 for 36 hours. Compounds listed in FIG. 1, that is, Compound A (3-[2-(4-{2-ethyl-4,6-dimethyl-1H-imidazo[4,5-c]pyridin-1-yl}phenyl)ethyl]-1-[(4-methylbenzene)sulfonyl]urea) and Compound B (4-[(1S)-1-({[5-chloro-2-(3-fluorophenoxy)pyridin-3-yl]carbonyl}amino)ethyl]benzoic acid) were added at the beginning of incubation at a dose of 10, 100, or 1000 nM. The supernatant collected at the end of culture was measured by ELISA for IL-23.

Balb/c male mice = assay: DSS model (DSS-induced colitis); assay type: in vivo, mouse; conditions: 2.5% DSS for 7 days; 3 or 30 mg/kg orally for 7 days; evaluated day 11
Experimental: Eight weeks-old Balb/c male mice were used in the study. Mice were allocated to four groups; normal control group, disease control group receiving vehicle, and two disease groups receiving different dose of Compound B. Colitis was induced by drinking 2.5% DSS (average molecular weight of 5,000) dissolved in water for 7 days. Compound B in 0.5% methyl cellulose solution (at a dose of 3 or 30 mg/kg) was orally administered for 7 days. The mice were sacrificed on day 11 and the colon was harvested for the evaluation. Colon length, colon weight, and histology score were analyzed. Histology score was determined as follows; 0=no signs of damage; 1=moderate inflammation; 2=severe inflammation.

C57BL/6 male mice = assay: Allergic contact dermatitis and psoriasis model (picryl chloride, ear swelling); assay type: in vivo, mouse
Experimental: Eight weeks-old C57BL/6 male mice were used in the study. Mice were sensitized with 0.1 mL of 7% picryl chloride-ethanol on shaved abdominal skin on day O, Seven days later, the mice were treated with 0.02 mL of 1% picryl chloride-olive oil on both sides of the ear by painting. Ear thickness was measured using a thickness gage before the treatment, and 24 and 48 hours after the treatment, and the difference of ear thickness was used as a parameter of ear swelling. Compound B suspended in 0.5% methyl cellulose solution (at a dose of 3 or 30 mg/kg) was administered orally either during the entire experimental period (days 0 to 11) or elicitation (E) period (days 8 to 10).

[3] = NPL 26; cited from earlier work
[4] = NPL 27; cited from earlier work

Structure (SMILES)	colitis score (Balb/c male mice)	colon weight/length (Balb/c male mice)	ear swelling (C57BL/6 male mice; treatment period not stated)	other results
CC(C(=O)Nc1cc(C#N)ccc1CCCC(=O)O)c1ccc(F)c2ccccc12 (centres unmarked) [AE3-208]				effect on MS (mice [1]): treat MS; also recorded: ameliorate; effect on allergic contact dermatitis (mice [2]; animal models, NPL 19): ameliorate; efficacy on the development (sensitization) of allergic contact dermatitis (mice [2]; prophylactic (sensitization), NPL 25): potent inhibitory efficacy; efficacy by therapeutic treatment in allergic contact dermatitis (mice [2]; therapeutic treatment, NPL 25): failed to show the efficacy; effect on DSS-induced colitis (rat): aggravated
CCc1nc2c(C)nc(C)cc2n1-c1ccc(CCNC(=O)NS(=O)(=O)c2ccc(C)cc2)cc1 [Compound A, 3-[2-(4-{2-ethyl-4,6-dimethyl-1H-imidazo[4,5-c]pyridin-1-yl}phenyl)ethyl]-1-[(4-methylbenzene)sulfonyl]urea]	Dose-dependent reduction	Dose-dependent reduction	dose-dependent reduction	inhibition of IL-23 production (mouse CD11c (+) cells): dose-dependent inhibition
C[C@H](NC(=O)c1cc(Cl)cnc1Oc1cccc(F)c1)c1ccc(C(=O)O)cc1 [Compound B, 4-[(1S)-1-({[5-chloro-2-(3-fluorophenoxy)pyridin-3-yl]carbonyl}amino)ethyl]benzoic acid]	restored	restored		inhibition of IL-23 production (mouse CD11c (+) cells): dose-dependent inhibition; ear swelling (C57BL/6 male mice; 3 or 30 mg/kg orally during elicitation (E) period (days 8 to 10)): significantly reduced; ear swelling (C57BL/6 male mice; 3 or 30 mg/kg orally during entire experimental period (days 0 to 11)): significantly reduced; maximum efficacy on ear swelling compared with prednisolone (Pred) (C57BL/6 male mice; mouse, in vivo): equal to that of prednisolone
C[C@H](NC(=O)c1cc(Cl)cnc1COc1cccc(Cl)c1)c1ccc(C(=O)O)cc1 [Compound C, 4-{(1S)-1-[({5-chloro-2-[(3-chlorophenoxy)methyl]pyridin-3-yl}carbonyl)amino]ethyl}benzoic acid]	Dose-dependent reduction	Dose-dependent reduction	dose-dependent reduction	
COc1ccc(-c2ccc(OCc3cc(C(=O)NS(=O)(=O)c4ccccc4C)oc3C)cc2)nc1 [Compound D, 4-((4-(5-methoxypyridin-2-yl)phenoxy)methyl)-5-methyl-N-(o-tolylsulfonyl)furan-2-carboxamide]	Dose-dependent reduction	Dose-dependent reduction	dose-dependent reduction	
Cc1sc(C)c(C(=O)NC2(c3ccc(C(=O)O)cc3)CC2)c1Cc1ccc(C(F)(F)F)cc1 [Compound E, 4-{1-[({2,5-dimethyl-4-[4-(trifluoromethyl)benzyl]-3-thienyl}carbonyl)amino]cyclopropyl}benzoic acid]	Dose-dependent reduction	Dose-dependent reduction	dose-dependent reduction	
COc1ccc2c(c1)c(CC(=O)O)c(C)n2C(=O)c1ccc(Cl)cc1 [indomethacin]				effect on DSS-induced colitis [3]: aggravated; effect on allergic contact dermatitis [4]: worse

Source: patent US9457084B2, “Use of EP4 receptor antagonists in the treatment of IL-23 mediated diseases” (RAQUALIA PHARMA INC., priority 2010, dated 2016)
